Data set [1] concerns Chrysanthemum indicum (Sorte: Yellow Delaware). Nature of the data set: Iron deficiency control / leaf uptake test (Eisenmangel-Bekämpfung / Blattaufnehmbarkeits-Test). It counts as in vivo. Conditions: for Intenistät der Grünfärbung junger Blätter / Ø Anzahl neu gebildeter Blätter: sprayed twice on fully chlorotic plants. An excerpt: Eisenmangel-Bekämpfung / Blattaufnehmbarkeits-Test
In einem Kultursubstrat der oben angegebenen Zusammensetzung werden Versuchspflanzen angezogen, wobei die Dünung und die Bewässerung dadurch erfolgt, daß man zweimal wöchentlich eine mineralische Eisenmangel-Nährlösung nach Hoagland und Arnon (Circular 347, College of Agriculture, University of California, Berkeley 1950) hinzugibt. Die so angezogenen völlig chlorotischen Versuchspflanzen werden in Fünfblattstadium mit der Wirkstoffzubereitung tropfnaß besprüht, wobei durch Abdecken dafür gesorgt wird, daß die Wirkstoffzubereitung nicht in das Kultursubstrat gelangt. Nach 2 Tagen wird erneut in gleicher Weise mit der Wirkstoffzubereitung besprüht. Die Auswertung erfolgt dann, wenn bei den mit einem wasserlöslichen, handelsüblichen Eisen-Dünger in optimaler Menge behandelten Pflanzen durchschnittlich 3 Blätter neu gebildet sind. Es wird jeweils die durchschnittliche Anzahl neu gebildeteter Blätter bei allen Versuchspflanzen ermittelt. Ferner wird die Intensität der Grünfärbung von neu gebildeten Blättern bonitiert und durch Kennzahlen ausgedrückt.

A short description of data set [2]: Water solubility of the preparation. It counts as physicochemical.
Setting [3] is: 0,1 % preparation in spray liquid.
The mark [4] stands for this setting: 0,02 % preparation in spray liquid.
Setting [5] is: 0,5 % preparation in spray liquid.

Take `CC(CC(=O)[c-]1cccc1)CC(C)(C)C.[Fe+2].c1cc[cH-]c1` (stereo not drawn) [3,5,5-Trimethylhexanoyl-ferrocen]: the results for the “Intenistät der Grünfärbung junger Blätter” value in data set [1] (setting [3]), in data set [1] (setting [4]) and in data set [1] (setting [5]) were 2, 3 (25 %-ig chlorotisch) and 1 (0 %-ig chlorotisch (dunkelgrün)), respectively. Further, the “Ø Anzahl neu gebildeter Blätter” value in data set [1] (setting [3]) is reported as 5; in data set [1] (setting [4]), 4; in data set [1] (setting [5]), 7. Besides, in data set [1] (fully chlorotic Chrysanthemum indicum, Sorte Yellow Delaware), the Eisenmangel result is given as “stark verringern oder sogar völlig beheben”. The “Wasserlöslichkeit des Präparates” value in data set [2] is “gering”.

With `CCC(=O)c1cc[cH-]c1.[Fe+2].c1cc[cH-]c1` [Propionylferrocen, reference compound], the “Intenistät der Grünfärbung junger Blätter” value in data set [1] (setting [3]) is reported as 3 (25 %-ig chlorotisch); in data set [1] (setting [4]) it was 8; in data set [1] (setting [5]), 2. The “Ø Anzahl neu gebildeter Blätter” value in data set [1] (setting [3]) is recorded as 4; in data set [1] (setting [4]) it was 3; in data set [1] (setting [5]) it was 5. Moreover, the “Wasserlöslichkeit des Präparates” value in data set [2] is “gering”.
